Experimental findings from ChEMBL document CHEMBL1158702, “Cytotoxic 4-phenylcoumarins from the leaves of Marila pluricostata” (2005) are described below.

Values after ≈ are worked out from the molar mass of the structure shown.

Format in all cases: functional
Test [1] deals with MCF7. Description: Cytotoxicity against human MCF7 cells.
Test [2] has as its system NCI-H460. Description: Cytotoxicity against human H460 cells.
The test system of test [3] is SF-268. Description: Cytotoxicity against human SF268 cells.

For orientation: GI50 means the concentration at which growth is held to half of that of the control. A low value points to more potent growth inhibition.

As for `CCC(C)C(=O)c1c(O)c(CC=C(C)C)c(O)c2c(-c3ccccc3)cc(=O)oc12` (configuration not stated), the GI50 in test [1] stood at 0.2 µg/mL (≈ 0.492 µM); in test [2], 0.3 µg/mL (≈ 0.738 µM); in test [3], 0.1 µg/mL (≈ 0.246 µM).
In the same order, the values of `CCC(=O)c1c2c(c3oc(=O)cc(-c4ccccc4)c3c1O)CCC(C)(C)O2` are 4.7 µg/mL (≈ 12.4 µM), 5.7 µg/mL (≈ 15.1 µM) and 6.8 µg/mL (≈ 18 µM).
In the same order, the values of `CC(C)=CCc1c(O)c(C(=O)C(C)C)c(O)c2c(-c3ccccc3)cc(=O)oc12` [MESUOL] are 0.2 µg/mL (≈ 0.51 µM), 0.3 µg/mL (≈ 0.764 µM) and 0.1 µg/mL (≈ 0.255 µM).
With `CCC(C)C(=O)c1c2c(c3oc(=O)cc(-c4ccccc4)c3c1O)C=CC(C)(C)O2` (configuration not stated), the 50% growth inhibitory concentration (GI50) in test [1] was 9.6 µg/mL (≈ 23.7 µM); in test [2], greater than 10 µg/mL; in test [3], greater than 10 µg/mL.
`CC(C)=CCc1c(O)c(C(=O)CC(C)C)c(O)c2c(-c3ccccc3)cc(=O)oc12` [MAMMEISIN]: the GI50 in test [1] came out at 0.2 µg/mL (≈ 0.492 µM); in test [2], 0.2 µg/mL (≈ 0.492 µM); in test [3], 0.1 µg/mL (≈ 0.246 µM).
Turning to `CC(C)C(=O)c1c2c(c3oc(=O)cc(-c4ccccc4)c3c1O)C[C@@H](C(C)(C)O)O2` [MESUOL CYCLO F], the GI50 was 5.8 µg/mL (≈ 14.2 µM) in test [1], 6.1 µg/mL (≈ 14.9 µM) in test [2] and 6.4 µg/mL (≈ 15.7 µM) in test [3].
In the same order, the values of `CCC(C)C(=O)c1c2c(c3oc(=O)cc(-c4ccccc4)c3c1O)C[C@@H](C(C)(C)O)O2` (some centres not stated) are 3.4 µg/mL (≈ 8.05 µM), 4.4 µg/mL (≈ 10.4 µM) and 4.8 µg/mL (≈ 11.4 µM).
As for `CC(C)CC(=O)c1c2c(c3oc(=O)cc(-c4ccccc4)c3c1O)C=CC(C)(C)O2` [MAMMEIGIN], the GI50 in test [1], in test [2] and in test [3] was greater than 10 µg/mL in each case.
Consider `COc1c(C(=O)CC(C)C)c(O)c(CC=C(C)C)c2oc(=O)cc(-c3ccccc3)c12`, for which the GI50 in test [1] is 0.4 µg/mL (≈ 0.951 µM); in test [2] it was 0.5 µg/mL (≈ 1.19 µM); in test [3], 0.4 µg/mL (≈ 0.951 µM).
Take `CC(C)=CCc1c(O)cc(O)c2c(-c3ccccc3)cc(=O)oc12`: the concentration for 50% growth inhibition (GI50) in test [1] was found to be 3.4 µg/mL (≈ 10.5 µM); in test [2], 4.4 µg/mL (≈ 13.6 µM); in test [3], 4.8 µg/mL (≈ 14.9 µM).
In the same order, the values of `C=C(C)C(O)Cc1c(O)c(C(=O)CC(C)C)c(O)c2c(-c3ccccc3)cc(=O)oc12` (configuration not stated) [DISPARINOL A] are 0.9 µg/mL (≈ 2.13 µM), 0.6 µg/mL (≈ 1.42 µM) and 0.5 µg/mL (≈ 1.18 µM).
Consider `CC(C)=CCc1c(O)c(C(=O)C(C)C)c2oc(=O)cc(-c3ccccc3)c2c1O` [ISOMESUOL], for which the GI50 was found to be 0.7 µg/mL (≈ 1.78 µM) in test [1], 0.6 µg/mL (≈ 1.53 µM) in test [2] and 0.6 µg/mL (≈ 1.53 µM) in test [3].
For `CC(C)CC(=O)c1c2c(c3oc(=O)cc(-c4ccccc4)c3c1O)C[C@@H](C(C)(C)O)O2` [CYCLOMAMMEISIN], the GI50 in test [1] worked out at 4.2 µg/mL (≈ 9.94 µM); in test [2] it was 4.6 µg/mL (≈ 10.9 µM); in test [3], 5.2 µg/mL (≈ 12.3 µM).
For the molecule `CC(C)CC(=O)c1c(O)cc(O)c2c(-c3ccccc3)cc(=O)oc12` [ISODISPAR B], the GI50 in test [1] stood at 1.5 µg/mL (≈ 4.43 µM); in test [2] it was 1.9 µg/mL (≈ 5.62 µM); in test [3], 1.8 µg/mL (≈ 5.32 µM).
In the same order, the values of `CC(=O)Oc1c(C(=O)CC(C)C)c(OC(C)=O)c2c(-c3ccccc3)cc(=O)oc2c1CC=C(C)C` [MAMMEISIN DIACETATE] are 0.6 µg/mL, 0.6 µg/mL and 0.5 µg/mL.
In the same order, the values of `CC(C)C(=O)c1c2c(c3oc(=O)cc(-c4ccccc4)c3c1O)C=CC(C)(C)O2` [MESUAGIN] are greater than 10 µg/mL, greater than 10 µg/mL and greater than 10 µg/mL.
Take `CC1(C)CCc2c(cc(O)c3c(-c4ccccc4)cc(=O)oc23)O1`: the GI50 in test [1] is 5.7 µg/mL (≈ 17.7 µM); in test [2] it was 6.7 µg/mL (≈ 20.8 µM); in test [3] it was 7.8 µg/mL (≈ 24.2 µM).
The like results for `CC(C)=CCc1c(O)c(C(=O)CC(C)C)c2oc(=O)cc(-c3ccccc3)c2c1O` [ISOMAMMEISIN] were, in that order, 0.7 µg/mL (≈ 1.72 µM), 0.8 µg/mL (≈ 1.97 µM) and 0.6 µg/mL (≈ 1.48 µM).
The like results for `CCC(C)C(=O)c1c(O)c(CC=C(C)C)c2oc(=O)cc(-c3ccccc3)c2c1O` (configuration not stated) were, in that order, 0.2 µg/mL (≈ 0.492 µM), 0.1 µg/mL (≈ 0.246 µM) and 0.1 µg/mL (≈ 0.246 µM).
